Measured values as given in patent US7537887B2, “Net, a transcription factor of the TCF family, as regulator of angiogenic factor expression” (Aventis Pharma S.A., priority 2000, dated 2009).

Legend:
Net = conditions: inhibitor 10 μM for 30 min; FIG. 3 lanes 3, 4
Experimental: (§1) NIH3T3 cells were transfected as described above with the control vector for GPCR (pCEFL) or the vector for GPCR (Line 2). 14 hours later, cells were washed and left in the growth medium for 2.5 hours. The cells were then treated with SB 203580 (10 μM) (Alexis Corp.) or U0126 (10 μM) (Promega) for 30 min. After 6 hours, extracts were analysed by SDS-PAGE and Western-blotting with antibodies against phospho-serine 365 Net (antibody 2F3, Ducret et al. (Oncogene, in press) or activated ERK (Promega).
Phosphorylation of endogenous Net was followed with a phospho-specific antibody that recognises phospho-serine 365, which is important for phosphorylation induced activation of Net by ERK and p38 signalling cascades.
as §1, with “(pCEFL-GPCR).” for “(Line 2).”, “[Antibody 2F3 , Giovane” for “(antibody 2F3, Ducret”, “(Genomics (1995) 29:769-72)]” for “(Oncogene, in press)”

ERK = ERK activation in GPCR-transfected NIH3T3 cells (Western blot, activated ERK antibody); type: cell-based; conditions: 10 μM; FIG. 3
From the text: FIG. 3: Phosphorylation of endogenous Net.

NES binding to CRM1 = NES binding to CRM1 (Homo sapiens, UniProt O14980); conditions: cited from earlier work
HUVEC cells = experiment: Microtubule formation by HUVEC cells on Matrigel induced by conditioned media from transfected NIH3T3 cells; type: cell-based; conditions: 10 ng/ml recombinant human VEGF added to conditioned medium; FIG. 1d, 1f
Experimental: FIG. 1: Microtubule formation by HUVEC cells on Matrigel induced by conditioned media from differentially transfected NIH3T3 cells. NIH3T3 cells were transfected by pCEFL-GPCR alone (FIG. 1a); pCEFL-GPCR with p601D-antisense-Net (FIG. 1c) or p601D-transdominant-Net (FIG. e). Before incubation with HUVEC cells, some of the conditioned media were incubated with either: (b) 0.2 μg/ml of anti-mouse-VEGF polyclonal antibody (total goat IgG; R&D SYSTEMS) or with (d and f) 10 ng/ml of recombinant human VEGF-A (R&D). The plates were observed after 24 hours (phase contrast, original magnification, ×40).
a. NIH3T3 cells (C11) were transfected by the calcium phosphate technique with pCEFL-KSHVGPCR (mouse EF12 promoter) and the AntiNet expression vector or the corresponding empty vector (p601D: Beddinton et al.1989,Development 106:37-46). 16 hours after applying the precipitate, the cells were washed twice with DMEM, incubated in DMEM with 0,05% FCS for 48 hours. The medium was collected and either tested immediately or stored at −80° C.
b. HUVEC cells (passage 4-6) were grown in DMEM/F12K containing 10% FCS, Heparine (50 ng/mnl), ECGF(Endothelial Cell Growth Factor, Sigma, 50 ng/ml) and Glutamine (2 mM).
c. The wells of 24-multiwell plates were coated with […] of Growth Factor Reduced MATRIGEL Matrix (Collaborative Biomedical Products) at 4° C. and incubated for 30 min at 37° C.
d. […]

Sequence of NES binding to CRM1 (O14980 whole entry): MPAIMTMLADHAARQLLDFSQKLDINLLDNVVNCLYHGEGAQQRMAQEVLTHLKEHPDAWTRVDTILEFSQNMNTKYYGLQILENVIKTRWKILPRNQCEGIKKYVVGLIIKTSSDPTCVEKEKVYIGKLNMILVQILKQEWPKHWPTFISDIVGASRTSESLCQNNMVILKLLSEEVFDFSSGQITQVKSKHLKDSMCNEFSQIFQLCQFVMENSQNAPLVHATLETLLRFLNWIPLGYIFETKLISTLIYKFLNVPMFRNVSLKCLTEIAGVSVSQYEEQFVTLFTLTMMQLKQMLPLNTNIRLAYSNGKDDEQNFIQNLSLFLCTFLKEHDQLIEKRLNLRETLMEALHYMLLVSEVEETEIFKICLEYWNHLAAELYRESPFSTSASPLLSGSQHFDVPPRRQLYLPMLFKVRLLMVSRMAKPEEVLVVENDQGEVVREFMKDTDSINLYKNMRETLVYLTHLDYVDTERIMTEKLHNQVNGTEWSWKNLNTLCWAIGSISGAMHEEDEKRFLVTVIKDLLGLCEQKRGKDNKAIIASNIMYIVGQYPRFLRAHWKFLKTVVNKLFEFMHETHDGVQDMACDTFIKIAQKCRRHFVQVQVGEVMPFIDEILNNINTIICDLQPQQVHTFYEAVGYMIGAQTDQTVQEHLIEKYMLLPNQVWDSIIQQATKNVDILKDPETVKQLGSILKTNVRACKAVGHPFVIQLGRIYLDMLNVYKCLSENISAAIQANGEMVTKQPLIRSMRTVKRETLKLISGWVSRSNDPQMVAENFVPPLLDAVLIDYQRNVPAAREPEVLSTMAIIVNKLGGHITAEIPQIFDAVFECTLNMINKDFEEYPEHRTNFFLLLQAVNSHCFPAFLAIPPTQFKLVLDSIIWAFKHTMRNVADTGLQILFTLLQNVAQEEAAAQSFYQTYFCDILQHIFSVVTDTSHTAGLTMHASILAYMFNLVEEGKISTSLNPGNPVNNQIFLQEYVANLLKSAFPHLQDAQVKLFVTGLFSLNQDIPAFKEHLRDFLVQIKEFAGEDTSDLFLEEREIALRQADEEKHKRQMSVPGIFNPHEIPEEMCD

C[S+]([O-])c1ccc(-c2nc(-c3ccncc3)c(-c3ccc(F)cc3)[nH]2)cc1 (centres unmarked) [SB 203580, 4-[5-(4-fluorophenyl)4-4-(pyridinyl)-1H-imidazol-2-yl]phenyl methyl sulfoxide]
GPCR induced phosphorylation of Net (phospho-serine 365) (Net): induction was dependent on both the p38 and ERK pathways
ERK activation (ERK): did not inhibit ERK activation

N#CC(=C(N)Sc1ccccc1N)C(C#N)=C(N)Sc1ccccc1N [U 0126, 1,4-diamino-2,3-dicyano-1,4 bis[2-aminophenylthio]butadiene]
GPCR induced phosphorylation of Net (phospho-serine 365) (Net): induction was dependent on both the p38 and ERK pathways

CCC(=C/[C@H](C)C/C=C/C(C)=C/[C@@H](C)C(=O)[C@@H](C)[C@H](O)[C@@H](C)C/C(C)=C/C(=O)O)/C=C/[C@@H]1OC(=O)C=C[C@@H]1C [leptomycin B]
active nuclear export of the Net protein induced by the JNK pathway (NES binding to CRM1): inhibited

B1: VEGFa: recombinant human VEGF-A (R&D) (protein)
chain: APTTEGEQKSHEVIKFMDVYQRSYCRPIETLVDIFQEYPDEIEYIFKPSCVPLMRCAGCCNDEALECVPTSESNITMQIMRIKPHQSQHIGEMSFLQHSRCECRPKKDRTKPENHCEPCSERRKHLFVQDPQTCKCSCKNTDSRCKARQLELNERTCRCDKPRR
microtubule inducing activity of conditioned medium from Net down-regulated GPCR cells after adding VEGFa (HUVEC cells): restored microtubule inducing activity
